Measured values taken from PubChem BioAssay AID1963848 (Molecular Pharmacology Branch, DTP, NCI, 2024).

Test system: 379773-124-R-J2-PDC spheroid viability
Assay: Anticancer human tumor 379773-124-R-J2-PDC patient-derived endometrial carcinoma cell line growth inhibition [POLQ]
Conditions: spheroids with HUVEC and MSC; for IC50: curve of first compound; for viability, T/C: stronger effect = lower value
Summary of the method: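 Growth inhibition in 3D: complex spheroids (tumor PDC, HUVEC, MSC) treated with POLQ inhibitor combinations; where Cmax unknown, highest tested concentration 10 microM, except SN-38 at 1 microM.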

[1] = second compound 0.0316 µM, first compound 0.0316 µM
[2] = second compound 0.0316 µM, first compound 0.1 µM
[3] = second compound 0.0316 µM, first compound 0.316 µM
[4] = second compound 0.0316 µM, first compound 1 µM
[5] = second compound 0.0316 µM, first compound 3.16 µM
[6] = second compound 0.0316 µM, first compound 10 µM
[7] = second compound 0.1 µM, first compound 0.0316 µM
[8] = second compound 0.1 µM, first compound 0.1 µM
[9] = second compound 0.1 µM, first compound 0.316 µM
[10] = second compound 0.1 µM, first compound 1 µM
[11] = second compound 0.1 µM, first compound 3.16 µM
[12] = second compound 0.1 µM, first compound 10 µM
[13] = second compound 0.316 µM, first compound 0.0316 µM
[14] = second compound 0.316 µM, first compound 0.1 µM
[15] = second compound 0.316 µM, first compound 0.316 µM
[16] = second compound 0.316 µM, first compound 1 µM
[17] = second compound 0.316 µM, first compound 3.16 µM
[18] = second compound 0.316 µM, first compound 10 µM
[19] = second compound 1 µM, first compound 0.0316 µM
[20] = second compound 1 µM, first compound 0.1 µM
[21] = second compound 1 µM, first compound 0.316 µM
[22] = second compound 1 µM, first compound 1 µM
[23] = second compound 1 µM, first compound 3.16 µM
[24] = second compound 1 µM, first compound 10 µM
[25] = second compound 3.16 µM, first compound 0.0316 µM
[26] = second compound 3.16 µM, first compound 0.1 µM
[27] = second compound 3.16 µM, first compound 0.316 µM
[28] = second compound 3.16 µM, first compound 1 µM
[29] = second compound 3.16 µM, first compound 3.16 µM
[30] = second compound 3.16 µM, first compound 10 µM
[31] = second compound 10 µM, first compound 0.0316 µM
[32] = second compound 10 µM, first compound 0.1 µM
[33] = second compound 10 µM, first compound 0.316 µM
[34] = second compound 10 µM, first compound 1 µM
[35] = second compound 10 µM, first compound 3.16 µM
[36] = second compound 10 µM, first compound 10 µM
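Note: spheroids exposed to drugs for seven days before readout.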
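Throughout, for viability, T/C: percent viability relative to DMSO vehicle control taken as 100%.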

## O=C(Nc1ccc(O)c(NS(=O)(=O)c2ccc(F)cc2)c1)c1ccc(-c2ccccc2)cc1 + Nc1ccc(C#CCN(C(=O)Cc2ncc(C(F)(F)F)cc2C(F)(F)F)c2ccc(F)cc2)nn1
Second compound 0.0316 µM
  IC50: > 10000 nM
Second compound 0.1 µM
  IC50: > 10000 nM
Second compound 0.316 µM
  IC50: > 10000 nM
Second compound 1 µM
  IC50: > 10000 nM
Second compound 3.16 µM
  IC50: > 10000 nM
Second compound 10 µM
  IC50: > 10000 nM
[1]
  viability, T/C: 85%
[2]
  viability, T/C: 92.1%
[3]
  viability, T/C: 85.8%
[4]
  viability, T/C: 91.5%
[5]
  viability, T/C: 89.8%
[6]
  viability, T/C: 77.5%
[7]
  viability, T/C: 89.8%
[8]
  viability, T/C: 81.8%
[9]
  viability, T/C: 90.8%
[10]
  viability, T/C: 82.6%
[11]
  viability, T/C: 89%
[12]
  viability, T/C: 79.3%
[13]
  viability, T/C: 91.9%
[14]
  viability, T/C: 90.4%
[15]
  viability, T/C: 84.1%
[16]
  viability, T/C: 88.7%
[17]
  viability, T/C: 92.2%
[18]
  viability, T/C: 79.6%
[19]
  viability, T/C: 96.6%
[20]
  viability, T/C: 96.4%
[21]
  viability, T/C: 89.1%
[22]
  viability, T/C: 83.2%
[23]
  viability, T/C: 93.8%
[24]
  viability, T/C: 81%
[25]
  viability, T/C: 94.4%
[26]
  viability, T/C: 86.3%
[27]
  viability, T/C: 88.8%
[28]
  viability, T/C: 86.2%
[29]
  viability, T/C: 86.7%
[30]
  viability, T/C: 79.4%
[31]
  viability, T/C: 94.2%
[32]
  viability, T/C: 87.6%
[33]
  viability, T/C: 87%
[34]
  viability, T/C: 85.2%
[35]
  viability, T/C: 86.5%
[36]
  viability, T/C: 71.9%

## CC1COCCN1c1cc(-c2ccnn2C)c2ccnc(-c3ccn[nH]3)c2n1 (centres undefined) + Cc1cccc(N(C)C(=O)C2C(O)CCN2c2nc(C)cc(C(F)(F)F)c2C#N)c1
Second compound 0.0316 µM
  IC50: 99.4 nM
Second compound 0.1 µM
  IC50: 102 nM
Second compound 0.316 µM
  IC50: 84.7 nM
Second compound 1 µM
  IC50: 74.2 nM
Second compound 3.16 µM
  IC50: 102 nM
Second compound 10 µM
  IC50: 96.3 nM
[1]
  viability, T/C: 81.4%
[2]
  viability, T/C: 49.9%
[3]
  viability, T/C: 12.2%
[4]
  viability, T/C: 10.4%
[5]
  viability, T/C: 9.61%
[6]
  viability, T/C: 5.75%
[7]
  viability, T/C: 83.7%
[8]
  viability, T/C: 50.7%
[9]
  viability, T/C: 16.9%
[10]
  viability, T/C: 10.2%
[11]
  viability, T/C: 8.42%
[12]
  viability, T/C: 6.47%
[13]
  viability, T/C: 79.4%
[14]
  viability, T/C: 45.1%
[15]
  viability, T/C: 10.8%
[16]
  viability, T/C: 7.57%
[17]
  viability, T/C: 9.57%
[18]
  viability, T/C: 7.53%
[19]
  viability, T/C: 76.5%
[20]
  viability, T/C: 40.7%
[21]
  viability, T/C: 13.5%
[22]
  viability, T/C: 8.7%
[23]
  viability, T/C: 8.89%
[24]
  viability, T/C: 6.67%
[25]
  viability, T/C: 76.9%
[26]
  viability, T/C: 50.7%
[27]
  viability, T/C: 14%
[28]
  viability, T/C: 9.29%
[29]
  viability, T/C: 8.28%
[30]
  viability, T/C: 6.05%
[31]
  viability, T/C: 70.5%
[32]
  viability, T/C: 49.3%
[33]
  viability, T/C: 14%
[34]
  viability, T/C: 9.57%
[35]
  viability, T/C: 9.04%
[36]
  viability, T/C: 5.97%
